{"source": "patent US20250152507A1", "about": "“SUBLINGUAL COMPOSITIONS FOR ERECTILE DYSFUNCTION” (Woody's Medical LLC, priority 2023, published 2025)", "origin": "cited, not measured here", "system": "men with mild ED", "details": "reported in C. McMahon et al., BMJ 2006", "data": [{"compound": "CN1CCc2cccc3c2[C@H]1Cc1ccc(O)c(O)c1-3", "note": "[Apomorphine, apomorphine]", "values": [{"measurement": "effect in men with mild ED", "value": "only a small effect"}]}]}
